pIC50: −log10 of the molar value.
Experiments:
[1] = test system: human breast MDA435 tumors; experiment: Tumor growth inhibition assay, human breast tumor (MDA435) xenograft in nude mice; assay type: in vivo, nude mice (CD-1 nu/nu)
Procedure: (§1) The in vivo anti-cancer efficacy of Compound (1) was assessed in tumor bearing mice using a tumor growth inhibition assay. Human breast tumor (MDA-435) cells were implanted by injection of a tumor cell suspension subcutaneously in the flank of a nude mouse. Treatment of the tumor with an experimental compound began after the tumor had been established (volume was approximately 100 mm^3). The animal then began a multiple injection schedule where the compound was administered orally. Tumors were measured two times a week. During the course of this assay, animals were monitored daily for signs of toxicity including body weight loss.
A supplemented media was prepared from 50% DMEM/Dulbecco Modified Eagle Medium (High Glucose), 50% RPMI 1640, 10% FBS/Fetal Bovine Serum (Hybridoma Tested; Sterile Filtered), 1% L-Glutamine, 1% Penicillin-Streptomycin, 1% MEM Sodium Pyruvate, 1% MEM Non-Essential Amino Acids. […]
The flask was washed with 10 ml of sterile room temperature phosphate buffered saline (PBS). […] The supernatant was aspirated and the cell pellet was resuspended in 10 ml of supplemented media and the cells were counted. […]
The above procedure for trypsinizing and centrifuging the cells were followed. The supernatant was aspirated and the cell pellet was resuspended in 10 ml of sterile PBS and the cells were counted. […]

[2] = test system: MES-SA/DX5 (multi-drug resistant human uterine sarcoma cell line); experiment: In vitro activity against multi-drug resistant cell line MES-SA/DX5; assay type: cell-based; conditions: MES-SA/Dx5, MES-SA/DX-5 MDR cells (Table 2)
Procedure: The cell lines were maintained in RPMI1640 (GIBCO) supplemented with 10% FCS, 100 units/ml penicillin, 100 ug/ml streptomycin, and 2 mM L-glutamine. The cells were split every third day and diluted to a concentration of 2×10^5 cells/ml one day before experiment. All experiments were performed on exponentially growing cell culture. Cell densities were 2.5×10^4 cells/ml in all experiment.
A stock solution of Compound (1) and a stock solution of Taxol (positive control) were prepared by dissolving the compound at a concentration of 1 mM in 100% DMSO. Final concentrations were obtained by diluting the stock solution directly into the tissue culture medium. Cells were incubated with varying concentrations of the compounds for 72 hours and the IC50 was determined by MTS (i.e. 3-(4,5,-dimethylthiazol-2-yl)-2,5-diphenyl tetrazolium bromide) assay. IC50 stands for the concentration of compound required to inhibit 50% tumor cell growth.
In vitro activity was determined in two MDR (Multi Drug Resistant) human cancer cell lines. HL-60/TX1000 was isolated in vitro by subculturing HL-60 in progressively higher concentration of Taxol. HL-60/TX1000 cells over-express mdr-1 mRNA and p-glycoprotein, as determined by western blot and immunofluorescence labeling with antiPGP antibodies. The cell is cross-resistant to Taxol, Vincristine, Adriamycin, Etoposide and Doxorubicin. MES-SA/Dx5 was established in the presence of increasing concentrations of Doxorubicin. […] MES-SA/Dx5 was purchased from ATCC.
The procedure for culturing the cells and assaying cancer cell growth inhibition were as described in Example 3.
The protocol described in Examples 9-10 was used to assay inhibition by Compounds (2)-(8) on the growth of the multidrug resistant cancer cell line MES-SA/DX5, which is a MDR uterine sarcoma cell line.

[3] = Body weight of nude mice bearing MDA435 tumor during treatment; assay type: in vivo, nude mice (CD-1 nu/nu); conditions: 25 and 50 mg/kg orally
Procedure: as §1
A dosing solution for compound administration was prepared by dissolving 1 gram of Compound (1) in 10 ml of acetone (HPLC grade), and sonicated for 5 minutes using 550 Sonic Dismembrator. 1.2 equivalents of 1 N HCl aqueous solution were added to the acetone solution which was then sonicated for 5 minutes. All solvent was then evaporated from the solution by using Speed Vac Plus SC 250 DDA over night. The dried powder was used for preparing the dosing solution of Compound (1). 1% Methyl cellulose (MC) vehicle was prepared by dissolving 1.0 gram of Methyl cellulose, 400 cps, U.S.P. (Spectrum Laboratory Products, Cat. # ME136) in 100 mL of H2O. This mixture was then stirred for 12 hours at room temperature to produce a clear 1% MC solution. […]

pIC50 [2]: 7.30
Compound: Cc1cc(NC(=O)C(=O)c2cc(Cc3ccc(C#N)cc3)n3ccccc23)sn1 [Compound (1), 2-(3-(4-cyanobenzyl)-indolizin-1-yl)-N-(3-methyl-isothiazol-5-yl)-2-oxo-acetamide]
tumor growth inhibition ([1]; MDA435 in nude mice, 25 mg/kg and 50 mg/kg orally, 3 times a week for 3 weeks, FIG. 1): significantly inhibits tumor growth | reduction of the volume of tumors ([1]; MDA435 tumors in nude mice, administered orally): greater than 50% | body weight change ([3]; FIG. 2): without showing significant body weight loss | body weight change ([3]; FIG. 2, listed as Compound 1): Little or no change in body weight
